What was measured:
[1] = molecular target: T1, Serine/threonine-protein kinase haspin (Homo sapiens) (UniProt Q8TF76); test: Inhibition of human Haspin using histone H3 as substrate at 1 uM in presence of 32P-ATP by Hotspot assay relative to control; values are per cent of control
T1 sequence (whole entry): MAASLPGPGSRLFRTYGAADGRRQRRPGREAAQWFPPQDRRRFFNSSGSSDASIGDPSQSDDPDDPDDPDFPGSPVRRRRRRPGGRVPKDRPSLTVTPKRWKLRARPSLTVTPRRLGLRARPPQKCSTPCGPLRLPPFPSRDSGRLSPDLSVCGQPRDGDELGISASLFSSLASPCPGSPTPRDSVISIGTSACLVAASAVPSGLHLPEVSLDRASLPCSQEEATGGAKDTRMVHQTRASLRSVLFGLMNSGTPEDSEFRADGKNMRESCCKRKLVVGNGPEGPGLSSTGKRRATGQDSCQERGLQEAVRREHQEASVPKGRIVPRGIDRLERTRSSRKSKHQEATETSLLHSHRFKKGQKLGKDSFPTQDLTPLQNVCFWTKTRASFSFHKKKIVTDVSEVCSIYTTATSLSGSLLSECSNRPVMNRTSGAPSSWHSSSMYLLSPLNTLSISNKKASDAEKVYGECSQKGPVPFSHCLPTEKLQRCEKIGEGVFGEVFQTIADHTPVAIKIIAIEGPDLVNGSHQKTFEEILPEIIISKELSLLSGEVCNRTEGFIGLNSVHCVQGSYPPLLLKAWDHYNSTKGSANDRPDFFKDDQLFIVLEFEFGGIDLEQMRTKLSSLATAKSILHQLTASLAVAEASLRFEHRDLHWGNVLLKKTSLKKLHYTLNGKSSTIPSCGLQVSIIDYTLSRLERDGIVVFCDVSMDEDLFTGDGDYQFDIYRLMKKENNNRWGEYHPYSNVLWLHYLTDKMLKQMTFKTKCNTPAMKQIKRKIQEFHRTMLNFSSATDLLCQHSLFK

[2] = molecular target: T2, Homeodomain-interacting protein kinase 4 (Homo sapiens) (UniProt Q8NE63); test: Inhibition of human HIPK4 using myelin basic protein as substrate at 1 uM in presence of 32P-ATP by Hotspot assay relative to control; values are per cent of control
T2 sequence (whole entry): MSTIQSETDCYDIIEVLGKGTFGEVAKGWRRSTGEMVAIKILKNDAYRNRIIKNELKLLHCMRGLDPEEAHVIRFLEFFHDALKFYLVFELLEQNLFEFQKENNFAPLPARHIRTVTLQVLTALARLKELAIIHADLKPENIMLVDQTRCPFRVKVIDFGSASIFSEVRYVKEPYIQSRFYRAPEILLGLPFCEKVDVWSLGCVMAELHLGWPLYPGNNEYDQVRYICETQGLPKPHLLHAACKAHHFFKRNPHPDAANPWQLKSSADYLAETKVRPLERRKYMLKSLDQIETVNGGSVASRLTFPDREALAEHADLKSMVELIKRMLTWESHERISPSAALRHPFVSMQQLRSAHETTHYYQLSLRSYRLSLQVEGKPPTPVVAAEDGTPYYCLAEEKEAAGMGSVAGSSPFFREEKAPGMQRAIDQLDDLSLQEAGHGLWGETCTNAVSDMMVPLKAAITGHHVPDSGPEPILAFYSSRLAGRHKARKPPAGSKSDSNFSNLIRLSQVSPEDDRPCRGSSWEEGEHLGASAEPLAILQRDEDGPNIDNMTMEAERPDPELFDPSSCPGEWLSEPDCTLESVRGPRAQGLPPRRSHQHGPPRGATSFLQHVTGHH

[3] = molecular target: Tyrosine-protein kinase CSK (Homo sapiens) (UniProt P41240); test: Inhibition of human CSK using poly[Glu:Tyr] (4:1) as substrate at 1 uM in presence of 32P-ATP by Hotspot assay relative to control; values are per cent of control
Sequence of Tyrosine-protein kinase CSK (Homo sapiens) (P41240 2-450 limits assumed): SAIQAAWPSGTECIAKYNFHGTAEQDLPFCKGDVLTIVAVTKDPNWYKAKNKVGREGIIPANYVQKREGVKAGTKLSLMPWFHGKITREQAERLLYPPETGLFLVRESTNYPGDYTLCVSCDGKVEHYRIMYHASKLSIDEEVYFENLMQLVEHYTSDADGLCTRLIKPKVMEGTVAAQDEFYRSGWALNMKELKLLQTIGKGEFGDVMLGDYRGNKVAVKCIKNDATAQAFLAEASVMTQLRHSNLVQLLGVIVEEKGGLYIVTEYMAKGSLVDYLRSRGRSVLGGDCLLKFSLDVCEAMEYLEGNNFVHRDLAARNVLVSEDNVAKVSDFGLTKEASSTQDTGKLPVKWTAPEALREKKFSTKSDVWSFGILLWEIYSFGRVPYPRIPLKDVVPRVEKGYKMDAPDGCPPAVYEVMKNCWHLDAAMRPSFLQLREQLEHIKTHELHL

[4] = molecular target: T3, Serine/threonine-protein kinase Sgk3 (Homo sapiens) (UniProt Q96BR1); test: Inhibition of human SGK3/SGKL using KGSGSGRPRTSSFAEG as substrate at 1 uM in presence of 32P-ATP by Hotspot assay relative to control; values are per cent of control
T3 sequence (whole entry): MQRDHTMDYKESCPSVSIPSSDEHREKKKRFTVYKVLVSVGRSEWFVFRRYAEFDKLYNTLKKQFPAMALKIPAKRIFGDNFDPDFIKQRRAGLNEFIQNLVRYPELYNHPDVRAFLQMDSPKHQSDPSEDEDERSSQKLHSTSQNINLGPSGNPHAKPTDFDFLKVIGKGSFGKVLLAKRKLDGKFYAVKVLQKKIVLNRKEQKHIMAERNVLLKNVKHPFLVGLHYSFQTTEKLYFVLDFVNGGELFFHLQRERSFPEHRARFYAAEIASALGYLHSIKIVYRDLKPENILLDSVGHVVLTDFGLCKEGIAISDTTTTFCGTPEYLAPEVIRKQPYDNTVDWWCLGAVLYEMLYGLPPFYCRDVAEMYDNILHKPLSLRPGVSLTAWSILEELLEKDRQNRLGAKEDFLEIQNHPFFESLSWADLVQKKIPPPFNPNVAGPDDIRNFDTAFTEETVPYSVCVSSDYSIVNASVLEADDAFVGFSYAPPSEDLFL

[5] = molecular target: Cyclin-dependent kinase 5/CDK5 activator 1 (Homo sapiens) (UniProt Q00535+Q15078); test: Inhibition of human CDK5/p35 using RB Protein as substrate at 1 uM in presence of 32P-ATP by Hotspot assay relative to control; values are per cent of control
Sequence of Cyclin-dependent kinase 5/CDK5 activator 1 (Homo sapiens) (Q00535 whole entry): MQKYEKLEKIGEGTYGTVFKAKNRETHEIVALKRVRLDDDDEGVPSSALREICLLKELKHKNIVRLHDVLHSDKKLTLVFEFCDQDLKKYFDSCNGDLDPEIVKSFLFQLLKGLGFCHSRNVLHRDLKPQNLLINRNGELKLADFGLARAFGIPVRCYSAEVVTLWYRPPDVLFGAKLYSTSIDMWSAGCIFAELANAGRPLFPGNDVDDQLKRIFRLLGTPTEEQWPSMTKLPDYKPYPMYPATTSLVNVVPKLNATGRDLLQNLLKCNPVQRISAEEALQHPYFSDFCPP
Sequence of Cyclin-dependent kinase 5/CDK5 activator 1 (Homo sapiens) (Q15078 99-307 partner limits assumed): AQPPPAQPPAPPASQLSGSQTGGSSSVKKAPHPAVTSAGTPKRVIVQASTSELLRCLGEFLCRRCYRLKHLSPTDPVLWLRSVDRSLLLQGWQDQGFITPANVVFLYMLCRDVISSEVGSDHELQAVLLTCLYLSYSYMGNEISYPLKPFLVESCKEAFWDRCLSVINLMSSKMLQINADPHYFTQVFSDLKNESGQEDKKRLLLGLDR

MEF = test: Induction of apoptosis in RIP3-/- MEF cells transfected with human RIP3 incubated for 18 hrs by Cell Titer-Glo luminescent cell viability assay; type: toxicity, cell-based; settings: mouse
[6] = molecular target: Phosphorylase b kinase gamma catalytic chain, skeletal muscle/heart isoform (Homo sapiens) (UniProt Q16816); test: Inhibition of human PHKg1 using KKLNRTLSFAEPG as substrate at 1 uM in presence of 32P-ATP by Hotspot assay relative to control; values are per cent of control
Sequence of Phosphorylase b kinase gamma catalytic chain, skeletal muscle/heart isoform (Homo sapiens) (Q16816 whole entry, looked up, canonical isoform): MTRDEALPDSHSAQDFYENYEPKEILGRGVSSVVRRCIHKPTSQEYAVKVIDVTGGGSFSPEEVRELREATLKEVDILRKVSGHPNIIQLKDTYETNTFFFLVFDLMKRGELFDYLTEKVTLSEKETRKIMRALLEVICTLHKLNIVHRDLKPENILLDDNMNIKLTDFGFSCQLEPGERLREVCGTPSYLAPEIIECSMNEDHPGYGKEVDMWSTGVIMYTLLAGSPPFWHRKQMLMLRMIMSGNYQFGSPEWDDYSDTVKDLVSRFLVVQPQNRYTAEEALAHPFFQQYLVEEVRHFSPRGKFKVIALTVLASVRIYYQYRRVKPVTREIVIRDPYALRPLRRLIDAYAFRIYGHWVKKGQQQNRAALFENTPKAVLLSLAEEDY

Homo sapiens = organism: Homo sapiens; test: Inhibition of human CDK7/cyclin H using myelin basic protein as substrate at 1 uM in presence of 32P-ATP by Hotspot assay relative to control; values are per cent of control
[7] = molecular target: RAC-gamma serine/threonine-protein kinase (Homo sapiens) (UniProt Q9Y243); test: Inhibition of human AKT3 using KGSGSGRPRTSSFAEG as substrate at 1 uM in presence of 32P-ATP by Hotspot assay relative to control; values are per cent of control
Sequence of RAC-gamma serine/threonine-protein kinase (Homo sapiens) (Q9Y243 whole entry): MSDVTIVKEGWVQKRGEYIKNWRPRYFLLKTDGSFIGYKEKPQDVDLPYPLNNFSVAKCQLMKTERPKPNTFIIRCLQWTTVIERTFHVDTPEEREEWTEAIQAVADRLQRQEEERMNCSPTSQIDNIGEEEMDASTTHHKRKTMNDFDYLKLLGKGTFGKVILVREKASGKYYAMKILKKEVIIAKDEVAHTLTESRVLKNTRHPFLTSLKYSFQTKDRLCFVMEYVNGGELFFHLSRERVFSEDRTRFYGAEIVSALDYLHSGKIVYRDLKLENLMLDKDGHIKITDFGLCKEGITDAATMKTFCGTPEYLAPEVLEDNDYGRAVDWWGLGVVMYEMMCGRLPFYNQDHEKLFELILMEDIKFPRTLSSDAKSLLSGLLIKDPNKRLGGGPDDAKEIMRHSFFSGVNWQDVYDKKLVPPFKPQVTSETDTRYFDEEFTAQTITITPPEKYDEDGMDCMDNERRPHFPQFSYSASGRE

[8] = molecular target: Tyrosine-protein kinase SYK (Homo sapiens) (UniProt P43405); test: Inhibition of human SYK using poly[Glu:Tyr] (4:1) as substrate at 1 uM in presence of 32P-ATP by Hotspot assay relative to control; values are per cent of control

In the case of CNC(=O)c1ccc2c(c1)ncn2-c1ccc(CC(=O)OC(C)(C)C)cc1, the residual activity [1] is reported as 98.1%, the residual activity [2] is reported as 107% and the residual activity [3] is reported as 78.6%. The residual activity [4] was 96.7%, the residual activity [5] was 97.1% and the Activity (MEF) was “Toxic”. The residual activity [6] was 101%, the residual activity (Homo sapiens) was 96.2% and the residual activity [7] was 98.4%. The residual activity [8] was 87.5%.

Cc1cc(-c2cnc(N)c3c(-c4ccc5scnc5c4)csc23)n(C)n1 gave a residual activity [1] of 95.5%, a residual activity [2] of 106% and a residual activity [3] of 69.5%. The residual activity [4] was 97.9%, the residual activity [5] was 97.8% and the Activity (MEF) was “Toxic”. It also gave a residual activity [6] of 96.8%, a residual activity (Homo sapiens) of 94.2% and a residual activity [7] of 96.1%. It also gave a residual activity [8] of 92.8%.

In the case of CC(C)S(=O)(=O)c1ccc2nccc(Nc3ccc4scnc4c3)c2c1, the residual activity [1] is reported as 86.2%, the residual activity [2] is reported as 93.7% and the residual activity [3] is reported as 58.8%. The residual activity [4] was 106%, the residual activity [5] was 98.7% and the Activity (MEF) was “Toxic”. For the same compound, the residual activity [6] was 94.8%, the residual activity (Homo sapiens) was 97.7% and the residual activity [7] was 94.3%. It also gave a residual activity [8] of 93.3%.
